Laboratory results reported in paper PMC6017873 (Molecules : A Journal of Synthetic Chemistry and Natural …, 2018).

Assays:
SIRT1 = target: T1, SIRT1 (Homo sapiens, UniProt Q96EB6); design: method as in PMID 28475330; details: reference inhibitors, same experimental conditions; cited from earlier work
T1 sequence (Q96EB6 1-747): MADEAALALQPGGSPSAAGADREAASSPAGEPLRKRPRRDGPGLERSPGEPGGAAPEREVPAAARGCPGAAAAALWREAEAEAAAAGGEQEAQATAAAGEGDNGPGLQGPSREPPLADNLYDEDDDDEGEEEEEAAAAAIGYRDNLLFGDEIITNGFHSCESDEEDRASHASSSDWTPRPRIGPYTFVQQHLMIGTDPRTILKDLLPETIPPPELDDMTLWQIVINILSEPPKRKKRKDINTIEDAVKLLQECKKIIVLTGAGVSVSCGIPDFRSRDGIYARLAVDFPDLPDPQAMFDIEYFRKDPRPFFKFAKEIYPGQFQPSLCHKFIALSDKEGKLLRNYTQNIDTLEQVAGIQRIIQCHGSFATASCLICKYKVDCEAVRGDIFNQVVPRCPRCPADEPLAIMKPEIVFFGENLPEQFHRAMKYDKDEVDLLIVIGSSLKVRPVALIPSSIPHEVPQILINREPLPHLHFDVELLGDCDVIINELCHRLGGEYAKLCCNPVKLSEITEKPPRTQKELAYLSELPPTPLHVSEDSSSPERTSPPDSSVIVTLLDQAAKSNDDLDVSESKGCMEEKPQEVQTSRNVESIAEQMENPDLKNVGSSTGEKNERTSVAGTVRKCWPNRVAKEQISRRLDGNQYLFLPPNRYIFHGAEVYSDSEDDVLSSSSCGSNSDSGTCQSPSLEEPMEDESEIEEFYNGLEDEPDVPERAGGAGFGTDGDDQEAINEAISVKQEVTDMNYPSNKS

K-562 cells = assay: Acetylation of histone H4 and α-tubulin by Western blot, K-562; assay type: cell-based, human; details: K-562, 5 or 50 µM
Method: Total proteins were extracted using the MPER® reagent (Thermo-scientific, […], Belgium) supplemented by 1× protease inhibitor cocktail (Complete EDTA-free, Roche, Prophac, Luxembourg, Luxembourg) according to manufacturer's instructions. Histones were extracted as previously described. Western blots were carried out as previously reported. Anti-acetylated α-tubulin (sc-23950) was from Santa Cruz Biotechnology (Tebubio, Boechout, Belgium); anti-acetylated histone H4 (06-866), anti-acetylated histone […] K-562 cells were treated with […] Acetylation of histone H4 (AcH4) and α-tubulin (Ac α- tubulin) was analyzed by Western Blot. β-actin and histone H1 were used as loading controls for the analysis of total and acid extracts, respectively. Blots are representative of three independent experiments. […]

SIRT3 = target: T2, SIRT3 (Homo sapiens, UniProt Q9NTG7); design: method as in PMID 28475330; details: cited from earlier work
T2 sequence (Q9NTG7 1-399): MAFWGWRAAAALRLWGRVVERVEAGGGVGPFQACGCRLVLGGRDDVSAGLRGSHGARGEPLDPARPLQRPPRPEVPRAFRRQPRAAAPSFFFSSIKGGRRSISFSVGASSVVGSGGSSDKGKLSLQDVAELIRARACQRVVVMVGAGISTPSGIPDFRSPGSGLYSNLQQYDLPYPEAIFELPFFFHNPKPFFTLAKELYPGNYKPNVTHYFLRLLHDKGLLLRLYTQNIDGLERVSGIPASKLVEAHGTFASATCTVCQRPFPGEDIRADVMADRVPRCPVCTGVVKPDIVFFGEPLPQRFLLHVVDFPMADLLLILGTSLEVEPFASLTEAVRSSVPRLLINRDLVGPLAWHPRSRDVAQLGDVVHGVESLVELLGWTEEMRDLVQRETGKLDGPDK

[1] = reference inhibitors, same experimental conditions

Structure (SMILES): N#C/C(=C\c1ccc(-c2cc(Cl)ccc2Cl)o1)C(=O)Nc1cccc2ncccc12 [AGK2]
- IC50 (SIRT1): 98.1 ± 2.4 µM

Structure (SMILES): Cc1ccc(C(=O)Nc2ccc(S(=O)(=O)O)c3cc(S(=O)(=O)O)cc(S(=O)(=O)O)c23)cc1NC(=O)c1cccc(NC(=O)Nc2cccc(C(=O)Nc3cc(C(=O)Nc4ccc(S(=O)(=O)O)c5cc(S(=O)(=O)O)cc(S(=O)(=O)O)c45)ccc3C)c2)c1 [Suramin, suramin]
- histone H4 or α-tubulin acetylation (K-562 cells): fails to induce histone H4 or α-tubulin acetylation
- histone H4 or α-tubulin acetylation (K-562 cells; listed as suramin): failed to induce any increase in histone or α-tubulin acetylation
- remaining SIRT3 enzymatic activity compared to the control set to 100% (SIRT3; at 100 µM): 70%
- IC50 (SIRT3; [1]): > 100 µM
- IC50 SIRT3 (SIRT3; [1]): inactive
